The values that follow come from BindingDB's records for PubMed 9454827 (Sibia Neurosciences, 1998).

pKi: −log10 of the molar value. A value given as a limit tells only on which side of the number the result lay.

One may read the pKi as the negative decadic logarithm of the Ki, by convention in mol/L. Low readings indicate a high Ki, high ones a low Ki.

The target in assay [1] is Neuronal acetylcholine receptor subunit alpha-4 (Homo sapiens, UniProt P43681).
Assay [2] addresses Neuronal acetylcholine receptor subunit alpha-2 (Homo sapiens, UniProt Q15822).
In assay [3] the target is Neuronal acetylcholine receptor subunit alpha-3 (Homo sapiens, UniProt P32297).
Sequence of Neuronal acetylcholine receptor subunit alpha-3 (P32297 whole entry): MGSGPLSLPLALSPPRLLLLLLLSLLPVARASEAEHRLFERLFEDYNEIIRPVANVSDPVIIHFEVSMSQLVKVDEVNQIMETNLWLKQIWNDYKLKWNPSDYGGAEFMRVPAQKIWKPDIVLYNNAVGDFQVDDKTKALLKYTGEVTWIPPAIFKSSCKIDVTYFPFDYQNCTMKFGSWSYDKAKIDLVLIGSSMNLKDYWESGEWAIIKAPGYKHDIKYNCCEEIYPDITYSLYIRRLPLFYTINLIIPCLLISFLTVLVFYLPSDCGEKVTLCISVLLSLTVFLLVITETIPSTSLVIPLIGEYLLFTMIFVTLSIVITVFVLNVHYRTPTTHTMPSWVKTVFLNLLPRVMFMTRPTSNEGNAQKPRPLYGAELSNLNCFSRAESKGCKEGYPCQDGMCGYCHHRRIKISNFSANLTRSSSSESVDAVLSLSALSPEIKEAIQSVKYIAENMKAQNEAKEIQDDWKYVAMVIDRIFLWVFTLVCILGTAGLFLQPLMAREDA

Sequence of Neuronal acetylcholine receptor subunit alpha-2 (Q15822 whole entry): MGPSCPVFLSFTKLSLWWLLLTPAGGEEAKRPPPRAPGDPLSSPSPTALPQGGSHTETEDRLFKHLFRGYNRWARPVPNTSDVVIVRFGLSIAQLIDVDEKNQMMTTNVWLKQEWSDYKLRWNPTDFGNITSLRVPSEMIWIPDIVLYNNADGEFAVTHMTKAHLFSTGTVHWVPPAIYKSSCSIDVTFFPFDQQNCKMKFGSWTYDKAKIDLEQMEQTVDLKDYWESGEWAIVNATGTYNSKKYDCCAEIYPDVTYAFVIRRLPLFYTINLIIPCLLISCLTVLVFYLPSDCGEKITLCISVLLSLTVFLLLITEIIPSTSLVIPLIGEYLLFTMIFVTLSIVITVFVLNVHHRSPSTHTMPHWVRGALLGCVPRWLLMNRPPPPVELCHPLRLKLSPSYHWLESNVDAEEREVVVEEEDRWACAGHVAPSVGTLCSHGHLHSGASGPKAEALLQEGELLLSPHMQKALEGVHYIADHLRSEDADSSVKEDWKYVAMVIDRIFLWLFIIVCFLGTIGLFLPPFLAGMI
Sequence of Neuronal acetylcholine receptor subunit alpha-4 (P43681 whole entry): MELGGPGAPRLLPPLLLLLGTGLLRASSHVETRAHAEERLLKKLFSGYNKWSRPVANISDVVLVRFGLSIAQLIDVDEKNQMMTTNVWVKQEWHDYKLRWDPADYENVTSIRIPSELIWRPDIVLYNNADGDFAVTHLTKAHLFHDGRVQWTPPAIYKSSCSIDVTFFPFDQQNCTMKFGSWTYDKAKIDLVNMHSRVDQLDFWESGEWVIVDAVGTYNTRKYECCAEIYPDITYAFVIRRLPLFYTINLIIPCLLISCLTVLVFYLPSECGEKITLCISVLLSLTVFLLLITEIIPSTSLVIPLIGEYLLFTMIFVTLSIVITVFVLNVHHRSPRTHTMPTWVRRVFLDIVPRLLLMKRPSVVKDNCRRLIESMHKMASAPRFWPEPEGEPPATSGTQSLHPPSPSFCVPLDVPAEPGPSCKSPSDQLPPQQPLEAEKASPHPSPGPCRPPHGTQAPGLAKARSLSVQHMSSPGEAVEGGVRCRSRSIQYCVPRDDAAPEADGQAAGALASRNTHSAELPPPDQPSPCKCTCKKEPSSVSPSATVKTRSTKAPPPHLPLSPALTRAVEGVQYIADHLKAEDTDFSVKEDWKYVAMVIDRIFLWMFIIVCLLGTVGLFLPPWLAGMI

For `CNC1(C)C2CCC(C2)C1(C)C` (stereo not given) [Methyl-(2,3,3-trimethyl-bicyclo[2.2.1]hept-2-yl)-amine(Mecamylamine)], the pKi in assay [1] was 6.25; in assay [2] it was 5.51.

As to `CO[C@@H]1CC=C2CCN3CCC4=C(CC(=O)OC4)[C@@]23C1`, the pKi in assay [2] is 5.29.

As to `C[N+]1(C)CCN(c2ccccc2)CC1` [DMPP], the pKi in assay [1], in assay [2] and in assay [3] was below 5.00 in each case.

As for `O=c1cccc2n1C[C@H]1CNC[C@H]2C1` [(1S,9R)-7,11-diazatricyclo[7.3.1.0~2,7~]trideca-2,4-dien-6-one], the figures for the pKi in assay [1] and in assay [3] were 6.29 and below 5.00, respectively.

Regarding `COc1cc2c3cc1Oc1cc(ccc1O)C[C@H]1c4c(cc(OC)c(O)c4Oc4ccc(cc4)C[C@@H]3N(C)CC2)CC[N+]1(C)C` [CAS_57-94-3], the pKi is 6.07 in assay [1], 5.65 in assay [2] and 6.14 in assay [3].

As to `CN1CCC[C@H]1c1cccnc1` [(R,S)-nicotine], in assay [2], the pKi is 5.00.

Take `C[N+](C)(C)CCOC(=O)CCCCCCC(=O)OCC[N+](C)(C)C` [NSC_123990]: the pKi was 5.95 in assay [1], 5.06 in assay [2] and below 5.00 in assay [3].
